The text below walks through data of article PMC5218480 (PLoS ONE, 2017).

The test system of the assay is MV-4-11 cells. The assay can be described thus: Gene expression microarray analysis (Affymetrix PrimeView) and GSEA. Type of assay: cell-based, human. Particulars: ProbeSet 11733176_x_at; LIST B.

On to `Nc1ccc(-c2cccs2)cc1NC(=O)c1ccc2c(c1)cc(C1CC1)n2CCN1CCOCC1` [ACY-1035], for which the “RFU, ZNF507” value is reported as 24.05 RFU.
